Where two headings read alike, the source gives them in different places. Values belong to the compound of their own block, whether it stands above or below them.
Columns and labels:
[1] = target: T1, P-gp (Homo sapiens, UniProt P08183); assay: Bi-directional transport assay in Caco-2 cells; assay type: cell-based
T1 construct: endogenous in cells; host or cells: Caco-2
Description: The procedure of initially adding equal concentrations to both compartments was adapted from the literature. Caco-2 cells were seeded near confluency in thin-cert inserts (translucent, Ø 0.4 µm, 24 well PET membrane, Greiner) and placed in multiwell plates (CELLSTAR 24 Multiwell plates, Greiner). The culture medium basolateral (multiwell) and apical (insert) was renewed every 2–3 days. Approximately 12 days after seeding the Caco-2 cells reached their highest trans-epithelial resistance, which was monitored every four days and on day of the experiment. An immunocytochemistry was also performed with an additional insert (translucent) to confirm stable formation of tight-junctions and cell monolayer. Culture medium was then removed and the cells were washed with PBS. Culture medium supplemented with cyclosporin (10 µM) was added to both compartments and the cells were incubated at 37 °C for 30 min. Afterwards 1 MBq [^18F]2b was added to each compartment. An aliquot was taken from each compartment after 0, 30, 60 and 90 min and analyzed in the gamma-counter. To identify cyclosporine-A induced accumulation the experiment was also performed using culture medium lacking cyclosporine-A. As positive control the experiment was performed with ^99mTc-MIBI (100 kBq/ compartment).

[2] = target: T1, P-gp; assay: P-gp inhibition assay (cellular uptake) in EA.hy926 cells; assay type: cell-based; conditions: with vs without cyclosporin-A
Description: (§1) EA.hy926 cells were seeded in culture medium at confluency the day prior to experiment or in case of the Caco-2 cells two days prior to experiment in 24-multiwell plates (Greiner Bio-One International GmbH, Kremsmünster, Austria). On the day of the experiment the culture medium was removed and the cells were washed once with PBS (500 µL). Culture medium supplemented with cyclosporine-A (5 µM for EA.hy926 and 10 µM for Caco-2) was added and the cells were incubated at 37 °C for 30 min. Afterwards 1 MBq of [^18F]2b was added to each well and incubated for further 30, 60 and 90 min. After incubation cells were washed with ice cold PBS (500 µL) and lysated with 0.1 M NaOH. The medium and lysates were analysed in the gamma-counter. To identify cyclosporine-A induced accumulation the experiment was also performed using culture medium lacking cyclosporine-A. As positive control the experiment was performed with ^99mTc-MIBI (100 kBq/well), a known P-gp substrate. To determine the lowermost concentration with which a maximum effect was obtained, cyclosporine-A was applied in a range of 0–50 µM and observed in a time frame of 30–120 min for both cell lines.

[3] = target: T1, P-gp; assay: P-gp inhibition assay (cellular uptake) in Caco-2 cells; assay type: cell-based; conditions: with vs without cyclosporin-A
Description: as §1

[4] = target: T2, D3 receptor (Rattus norvegicus, UniProt P19020); assay: In vitro autoradiography of coronal rat brain sections; assay type: binding; conditions: displacement with BP897
T2 construct: In vitro autoradiography of coronal rat brain sections after incubation with the respective radioligand; from tissue; host or cells: coronal brain cryosections (20 µm) of male Sprague Dawley rats
Description: Male Sprague Dawley rats (200–250 g) were sacrificed by decapitation under deep isoflurane anesthesia and brains were removed and frozen in cooled hexane at −70 °C. Coronal brain sections (20 µm) were cut on a cryostat microtome (HM550, Microm-Thermo Fisher Scientific, Walldorf, Germany) and thaw-mounted on covered glass slides (Histobond®, Marienfeld, Lauda Königshofen, Germany). The thaw mounted sections were stored at −20 °C up to 14 days.
The cryostat sections were pre-incubated for 15 min in incubation buffer (50 mM Tris-HCl, 40 mM NaCl, pH 7.4) at room temperature. The sections were then placed in incubation buffer containing 5 MBq of the respective tracer. For displacement studies BP897 (50 nM or 1 µM) was added. The sections were incubated at room temperature for 45 min and afterwards washed in ice cold incubation buffer for 3 × 5 min. Subsequently, they were dipped in water and after drying placed on a phosphor imaging screen (Fujitsu, Berlin, Germany) over night. The screens were analyzed with a DUERR Medical HD-CR 35 Bio (Raytest, Straubenhardt, Germany) and evaluated using the software AIDA image analyzer (Raytest). For anatomical identification of brain regions, the sections were compared with figures in the rat brain atlas.

[5] = target: D3 receptor; conditions: cited from earlier work
[6] = parameters: method as in PMID 24339325, PMID 26707848; conditions: over 120 min, previously reported; cited from earlier work
[7] = tested on: dopamine D3 receptor; assay: Dynamic small-animal PET recordings; assay type: in vivo; conditions: rat
Description: Small-animal PET imaging studies were conducted with male Sprague Dawleys rats (250–300 g) on a Inveon microPET scanner (Siemens Healthcare, Erlangen, Germany) under isoflurane (3%) anesthesia. After intravenous injection of [^18F]2b (10–15 MBq), dynamic emission recordings consisting of 13 frames of duration increasing from 30 s to 10 min were acquired to a total of 60 min. For displacement studies BP897 (1 mg/kg) was administered 30 min prior to radioligand injection. Dynamic emission images were corrected for attenuation and decay, and reconstructed by the iterative maximum a posteriori estimation, using software installed in the Inveon PET for dead time and random correction. The dynamic PET scan was then evaluated using the software Amide. The regions of interest were evaluated voxel based and the mean activity in %ID/g of each frame calculated.

[8] = Free fraction in rat plasma; assay type: in vitro ADME; conditions: for bound to proteins in plasma: of the injected dose; for free radioligand in rat plasma: Figure 3b
Description: (§2) The free fraction in vitro was determined by adding the respective radioligand (100 kBq) to plasma or CSF (200 µL) and mixed vigorously. Aliquots of 20–50 µL were transferred to size exclusion chromatography columns (MicroSpin G-50; GE Healthcare GmbH, Solingen, Germany, centrifuged for two min at 2000 rpm, and the radioactivity in the filtrate and in the resin were measured in the gamma-counter. Three independent experiments were performed in triplicates.
For the ex vivo determination of the radioligands binding to proteins the respective tracer (15 MBq) was administered intravenous to male Sprague Dawley rats (200–250 g) under isoflurane anesthesia. Blood samples were drawn intravenous after 5, 15 and 30 min and centrifuged for 5 min at 2000 rpm in heparin-coated vials. An aliquot of 50 µL was taken from the supernatant and added to an equal volume of water (10% TFA). The protein precipitate was centrifuged off for 5 min at 25,000 rpm and analyzed together with a further 50 µL aliquot of the supernatant in the gamma-counter. Two independent experiments were performed.

[9] = parameters: method as in PMID 24339325, PMID 26707848; conditions: experimental, pH 7.4, n = 6, previously reported; cited from earlier work
[10] = Binding to proteins in human plasma in vitro; assay type: in vitro ADME; conditions: human vs rat plasma
Description: as §2

[11] = Determination of log D7.4 (experimental); assay type: physicochemical; conditions: pH 7.4, n = 6
Description: Human serum was purchased (Biochrom, Biochrom, UK). Human plasma and cerebrospinal fluid was a kind gift from the laboratory of Prof. P. Lewczuk of the clinical neurochemistry in Erlangen. Rat plasma was collected from male Sprague Dawley blood samples. The blood samples were collected intravenous and centrifuged at 2000 rpm for 15 min in heparin coated vials. The supernatant was stored in aliquots at −20 °C. Radioactivity was measured with radio HPLC or in a gamma-counter (Wallac Wizard, PerkinElmer, Waltham, MA, USA). The determination of the distribution coefficient at pH 7.4 (log D7.4) has been previously published.

[12] = In vitro stability in human serum; assay type: in vitro ADME; conditions: 37 °C, after 120 min
Description: For the in vitro stability, an aliquot of the respective radioligand (1–5 MBq) was added to human serum (200 μL) and incubated at 37 °C. Aliquots (20 μL) were taken after 15, 30 and 120 min and analyzed by radio-HPLC (Method 1).

[13] = In vivo stability in blood of living rats (radiometabolites); parameters: species or system rat
Description: For the determination of radioligand stability in vivo and detection of radiometabolites the respective radiotracer (15 MBq) was administered intravenous to male Sprague Dawley rats (200–250 g) under isoflurane anesthesia. Blood samples were drawn intravenous after 5, 15 and 30 min and centrifuged for 5 min at 2000 rpm in heparin-coated vials. An aliquot of 50 µL was taken from the supernatant and added to an equal volume of water (10% TFA). The protein precipitate was centrifuged off for 5 min at 25,000 rpm and an aliquot of the supernatant was fractioned with HPLC (Chromolith RP-18e, 100 mm × 4.6 mm, 4 mL/min, solvent A: water (0.1% TFA), solvent B: acetonitrile (0.1% TFA), gradient A/B: 90:10 to 0:100 in 15 min, λ = 214 nm). The fractions were then analyzed in the gamma-counter. To identify the fractions containing the intact radioligand, the retention time and fractioning of the respective tracer was previously assessed. Two independent experiments were performed.

[14] = Caco-2, absence of cyclosporin-A, up to 90 min

T1 sequence (P08183 whole entry): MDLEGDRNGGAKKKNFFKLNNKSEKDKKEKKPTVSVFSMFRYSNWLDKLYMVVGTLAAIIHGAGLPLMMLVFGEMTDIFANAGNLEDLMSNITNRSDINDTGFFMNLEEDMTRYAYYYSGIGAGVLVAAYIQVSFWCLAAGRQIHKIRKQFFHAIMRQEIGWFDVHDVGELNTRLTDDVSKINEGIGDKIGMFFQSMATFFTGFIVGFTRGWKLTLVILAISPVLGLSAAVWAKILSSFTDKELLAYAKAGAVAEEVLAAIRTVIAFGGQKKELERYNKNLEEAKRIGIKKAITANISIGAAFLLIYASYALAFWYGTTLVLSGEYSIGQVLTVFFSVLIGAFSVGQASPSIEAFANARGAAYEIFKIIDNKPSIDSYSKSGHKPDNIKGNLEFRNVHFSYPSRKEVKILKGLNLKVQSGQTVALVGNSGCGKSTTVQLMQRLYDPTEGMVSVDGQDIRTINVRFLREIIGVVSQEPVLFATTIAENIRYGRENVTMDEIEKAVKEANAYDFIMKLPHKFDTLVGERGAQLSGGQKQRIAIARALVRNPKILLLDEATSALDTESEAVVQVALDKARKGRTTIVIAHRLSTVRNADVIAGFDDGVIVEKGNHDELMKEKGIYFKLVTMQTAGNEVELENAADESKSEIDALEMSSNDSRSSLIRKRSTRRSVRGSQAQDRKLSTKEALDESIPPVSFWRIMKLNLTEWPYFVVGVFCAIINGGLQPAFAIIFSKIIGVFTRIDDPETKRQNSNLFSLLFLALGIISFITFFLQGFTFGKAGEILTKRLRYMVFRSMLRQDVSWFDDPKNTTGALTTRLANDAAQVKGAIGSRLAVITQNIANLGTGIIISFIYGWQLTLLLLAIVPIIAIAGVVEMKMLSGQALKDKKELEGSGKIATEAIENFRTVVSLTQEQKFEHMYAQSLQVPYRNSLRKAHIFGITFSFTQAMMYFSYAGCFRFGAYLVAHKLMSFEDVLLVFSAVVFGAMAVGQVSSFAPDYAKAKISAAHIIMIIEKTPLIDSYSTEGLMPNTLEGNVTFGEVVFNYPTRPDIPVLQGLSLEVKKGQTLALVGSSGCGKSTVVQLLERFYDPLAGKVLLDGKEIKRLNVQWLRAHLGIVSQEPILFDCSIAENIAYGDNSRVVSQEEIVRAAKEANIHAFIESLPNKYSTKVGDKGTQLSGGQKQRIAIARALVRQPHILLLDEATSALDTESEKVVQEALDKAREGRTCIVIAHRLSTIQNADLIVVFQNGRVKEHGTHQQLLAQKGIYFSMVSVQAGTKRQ
T2 sequence (P19020 whole entry): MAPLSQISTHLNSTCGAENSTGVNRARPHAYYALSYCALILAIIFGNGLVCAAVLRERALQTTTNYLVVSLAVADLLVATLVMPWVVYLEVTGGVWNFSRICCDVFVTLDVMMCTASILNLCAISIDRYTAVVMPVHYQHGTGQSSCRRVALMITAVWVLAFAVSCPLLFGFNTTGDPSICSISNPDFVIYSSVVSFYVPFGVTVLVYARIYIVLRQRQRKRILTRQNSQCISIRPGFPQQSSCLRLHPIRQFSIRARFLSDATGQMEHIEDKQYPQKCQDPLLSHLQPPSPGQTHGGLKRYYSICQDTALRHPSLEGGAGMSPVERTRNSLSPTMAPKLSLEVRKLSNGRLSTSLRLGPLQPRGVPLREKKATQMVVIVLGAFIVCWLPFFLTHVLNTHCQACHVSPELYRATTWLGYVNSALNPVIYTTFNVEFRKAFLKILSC

Compound: [99Tc].[C-]#[N+]CC(C)(C)OC.[C-]#[N+]CC(C)(C)OC.[C-]#[N+]CC(C)(C)OC.[C-]#[N+]CC(C)(C)OC.[C-]#[N+]CC(C)(C)OC.[C-]#[N+]CC(C)(C)OC [^99mTc-MIBI, ^99mTc-methylisobutylnitrile, reference compound]
concentration in the apical compartment, % of the initial concentration [1, 14]: 120%
concentration in the basolateral compartment, % of the initial concentration [1, 14]: 70%
concentration in the basolateral compartment ([1]; Caco-2, presence of cyclosporin-A): remained nearly constant
concentration in the apical compartment, % of the initial concentration ([1]; Caco-2, presence of cyclosporin-A (^99mTc-MIBI after 60 and 90 min; [^18F]2b after 30 min)): 90%
influence of cyclosporin-A on cellular uptake [2]: accumulated
influence of cyclosporin-A on cellular uptake [3]: accumulated

Compound: O=C(/N=N/c1ccc([18F])cc1)NCCC(O)CN1CCN(c2cccc(Cl)c2Cl)CC1 (centres unmarked) [[^18F]2a]
binding pattern in rat brain sections [4]: homogenous non-specific binding throughout the whole rat brain sections
Ki [5]: 3.6 nM
decomposition in human serum [6]: no decomposition was observed
brain uptake smaller than for [^18F]2b, factor [7]: 1.5
uptake in the pituitary gland ([7]; 25 min p.i.): 0.6 %ID/g
bound to proteins in plasma [8]: 82%
free radioligand in rat plasma [8]: 18%
Log D7.4 [9]: 2.56 ± 0.01

binding to human plasma higher than in rat plasma [10]: 20%–30%
logD [11]: 2.5 ± 0.04
decomposition in human serum [12]: ≤ 2%
uptake in the pituitary gland ([7]; 30 min p.i.): 0.45 %ID/g
maximum uptake in the cerebral matter ([7]; after 50 seconds): 0.25 %ID/g
uptake in the cerebral matter after wash-out ([7]; over the 60 min of recording): 0.17 %ID/g
intact tracer in rat plasma ([13]; 15 min post intravenous injection): 57%
intact tracer in rat plasma ([13]; nearly constant over the total sampling time): ~ 60%
bound to proteins in plasma [8]: 58%
free radioligand in rat plasma [8]: 42%
Compound: O=C(NCCC(O)CN1CCN(c2cccc(Cl)c2Cl)CC1)c1ccc(F)nc1 (centres unmarked) [[^18F]1, N-(4-(4-(2,3-Dichlorophenyl)piperazine-1-yl)-3-hydroxybutyl)-6-fluoronicotinamide]
binding pattern in rat brain sections [4]: pronounced non-specific binding in the corpus callosum and anterior commissure
Ki [5]: 1.9 nM

Reference: publication PMC6272905, “In Vitro and In Vivo Characterization of Selected Fluorine-18 Labeled Radioligands for PET Imaging of the Dopamine D3 Receptor” (Molecules, 2016)
